Results as given in patent US12396997B2, “Methods of treatment with an iboga alkaloid” (priority 2022, dated 2025).
Several values for one entry are separate records, joined by “and”; a condition that tells them apart may be missing. Identical values can stand only once. Entries after “also recorded” stand apart in the source; their conditions may differ.

Key:
[1] = system: special operations veterans with history of TBI; conditions: in vivo
[2] = system: brain-derived neurotrophic factor (BDNF) and glial cell line-derived neurotrophic factor (GDNF); conditions: literature; cited from earlier work
[3] = system: special operations veterans with history of TBI; assay: Hamilton Anxiety Rating Scale (HAM-A); assay type: in vivo, human
Protocol: (§1) Thirty, male, navy seal or army special forces veterans, ages 33-58 years (mean 44.5 years), were enrolled. Of the 30 participants, 27 were Caucasian, 1 was Hispanic and 2 were Native American. Body mass index was between 17-35 kg/m^2.
(§2) With subjects in the fasting state, an intravenous infusion of 1 gram of magnesium sulfate was administered 1-2 hours prior to treatment. […] Medical staff (MD, RN, or EMT) were onsite at a ratio of at least 1 staff per 2 patients throughout treatment for monitoring and management, but no specific coaching or psychological support was provided during treatment.
(§3) Post treatment, each subject was assessed four days after treatment, one month after treatment, and, if willing, one year after treatment. The post-treatment assessments conducted at four days and at one month after treatment included neuropsychological testing, measures of PTSD, depression, anxiety, mystical experiences, functional imaging and EEG. Post-treatment assessments conducted at one year after treatment included PTSD, depression, and anxiety measures. […]

[4] = system: special operations veterans with history of TBI; assay: World Health Organization Disability Assessment Scale 2.0 (WHODAS 2.0); assay type: in vivo, human; conditions: for WHODAS 2.0 Subscale Self Care: baseline 5.2% ± 9.2%; for WHODAS 2.0 Subscale Mobility: baseline 14.7% ± 15.7%
Protocol: as §1, §2
Post treatment, each subject was assessed four days after treatment, one month after treatment, and, if willing, one year after treatment. The post-treatment assessments conducted at four days and at one month after treatment included neuropsychological testing, measures of PTSD, depression, anxiety, mystical experiences, functional imaging and EEG. Post-treatment assessments conducted at one year after treatment included PTSD, depression, and anxiety measures.
World Health Organization Disability Assessment Scale 2.0 (WHODAS 2.0) was used as a measure of function. WHODAS was used to assess the impact of health conditions across six life domains (cognition, mobility, self-care, interpersonal, life activities, and community participation) and it is sensitive to change over time (Gold, L. H., J. Am. Acad. Psychiatry Law 42, 9 (2014). Each item in the assessment is rated on a scale ranging from no problems to extreme problems (Üstün, T. B. et al., Measuring health and disability: Manual for WHO disability assessment schedule WHODAS 2.0. (World Health Organization, 2010)). To capture inter-individual variability in disability the WHODAS complex scoring method was used. Raw scores were converted to a metric ranging from 0 (no disability) to 100 (full disability), by calculating the ratio of the participant's score relative to the maximum possible score in each domain as well as to the total score (Id.). A score of 20%-39% was considered mild, 40%-59% was moderate, 60%-79% was moderate-severe and 80%-100% was severe. Scores from baseline were compared to scores from one-month post treatment.

cortical neuron = conditions: in vitro; literature; cited from earlier work
[5] = system: special operations veterans with history of TBI; assay: CAPS-5 (Clinician-administered PTSD Scale for DSM-5); assay type: in vivo, human
Protocol: as §1, §2, §3

[6] = orally administered to humans; cited from earlier work
[7] = system: N-methyl-D-aspartate, kappa and mu opioid, sigma-1 and -2, nicotinic acetylcholine, serotonin transporter, and dopamine transporter; conditions: literature; cited from earlier work
[8] = system: special operations veterans with history of TBI; assay: Safety monitoring during and after ibogaine treatment (adverse events, QTc by ECG); assay type: in vivo, human
Protocol: 12 participants (40%) were treated for headache. 7 (23%) for nausea. 3 (10%) for anxiety. 2 (7%) for hypertension, and 1 (3%) for insomnia.
as §2

[9] = following treatment vs baseline
[10] = effect size, Baseline vs One-Month
[11] = effect size, Baseline vs Post-Treatment

Compound: CCC1CC2CC3c4[nH]c5ccc(OC)cc5c4CCN(C2)C13 (stereo not drawn) [ibogaine]
- Declines across any performance domain [1]: No declines
- Executive functioning effect size D [1]: 0.31-1.22
- Performance change in language (semantic fluency) [1]: No significant performance changes
- Phonemic Fluency (D-KEFS Verbal Fluency) [1]: 64.0 ± 10.1 T score
- Processing speed effect size D [1]: 0.97-1.34
- Reaction Time (CPT-3 Reaction Time) [1]: 44.1 ± 6.8 T score and 46.4 ± 8.1 T score
- Slowing of reaction time effect size D [1]: 0.29-0.52
- Sustained Attention (CPT-3 Hit Reaction Time Block Change) [1]: 50.8 ± 7.9 T score and 51.2 ± 7.7 T score
- Sustained attention accuracy (detection) effect size D [1]: 0.86-1.05
- Verbal Memory (HVLT-R) [1]: 49.0 ± 9.2 T score
- Working Memory (WMI (WAIS-IV)) ([1]; iv): 57.0 ± 9.5 T score
- Transcription of neurotrophic factors BDNF and GDNF [2]: increases the transcription
- Cohen's D on clinician rated psychiatric assessments (anxiety) [3, 9]: > 2
- Remission rate for comorbid anxiety ([3]; secondary analyses): around 80%
- WHODAS 2.0 Subscale Self Care ([4]; One-Month, mean, SD 2.9%): 1.0% ±
- WHODAS 2.0 Subscale Mobility ([4]; One-Month, mean, SD 3.3%): 1.3% ±
- WHODAS 2.0 Subscale Cognition ([4]; One-Month, mean, SD 7.9%, baseline 36.1% ± 14.6%): 5.0% ±
- WHODAS 2.0 Subscale Interpersonal ([4]; One-Month, mean, SD 9.5%, baseline 32.3% ± 20.4): 4.8% ±
- WHODAS 2.0 Subscale Community Participation ([4]; One-Month, mean, SD 13.1%, baseline 35.6% ± 21.1%): 5.9% ±
- WHODAS 2.0 Subscale Life Activities ([4]; One-Month, mean, SD 16.2%, baseline 41.1% ± 24.8%): 9.1% ±
- WHODAS 2.0 Subscale Self Care ([4]; Post-Treatment, mean, SD 4.7%): 1.9% ±
- WHODAS 2.0 Subscale Mobility ([4]; Post-Treatment, mean, SD 13.5%): 7.2% ±
- WHODAS 2.0 Subscale Mobility, D [4, 10]: 0.83
- WHODAS 2.0 Subscale Self Care, D [4, 10]: 0.51
- WHODAS 2.0 Subscale Cognition, D [4, 11]: 0.96
- WHODAS 2.0 Subscale Community Participation, D [4, 11]: 0.53
- WHODAS 2.0 Subscale Interpersonal, D [4, 11]: 0.60
- WHODAS 2.0 Subscale Life Activities, D [4, 11]: 0.48
- WHODAS 2.0 Subscale Mobility, D [4, 11]: 0.53
- WHODAS 2.0 Subscale Self Care, D [4, 11]: 0.37
- Cortical neuron dendritic arbor complexity (cortical neuron): increases cortical neuron dendritic arbor complexity
- Cohen's D on clinician rated psychiatric assessments (PTSD) [5, 9]: > 2
- Remission rate for comorbid PTSD ([5]; secondary analyses): around 80%
- half-life [6]: about 7.5 hours
- Affinity for neurotransmitter receptors [7]: moderate-to-weak affinity
- Unexpected or serious treatment-emergent side effects / adverse events ([8]; 30 participants, oral ibogaine 12.1±1.2 mg/kg with iv magnesium sulfate, 1.2 mg/kg): no unexpected or serious treatment-emergent side effects; also recorded: no serious or unexpected adverse events
- Concerning prolongation of QTc ([8]; continuous 5-lead ECG): no instances of a concerning prolongation of QTc
- Participants treated for insomnia ([8]; during oneirogenic effects, 1 participant): 3%
- Participants treated for hypertension ([8]; during oneirogenic effects, 2 participants): 7%
- Participants treated for anxiety ([8]; during oneirogenic effects, 3 participants): 10%
- Participants treated for nausea ([8]; during oneirogenic effects, 7 participants): 23%
- Participants treated for headache ([8]; during oneirogenic effects, 12 participants): 40%
